Test results taken from US7030145B2, “Pyridinyl derivatives for the treatment of depression” (Bristol-Myers Squibb Company, priority 2003, dated 2006).
pKi: −log10 of the molar value.

Experiments:
[1] = target: T1, cloned human CRF-R1 receptors (Homo sapiens, UniProt P34998); experiment: CRF-R1 receptor binding assay (inhibition of 125I-ovine-CRF binding to cell membranes); set-up: key to activity (Ki class in the CRF assays): a: Ki≦100 nM; b: 100 nM<Ki≦500 nM; c: 500 nM<Ki≦5,000 nM; activity reported in percent inhibition at 10 μM; details: membranes of 293EBNA cells transfected with hCRFR1, class d = reported as percent inhibition at 10 μM, figures not given; for pKi: read-out: activity (Ki class in the CRF assays)
T1 construct: the coding region was amplifies by PCR from start to stop codons; expressed in transfected cells; membranes
T1 sequence (P34998 24-415): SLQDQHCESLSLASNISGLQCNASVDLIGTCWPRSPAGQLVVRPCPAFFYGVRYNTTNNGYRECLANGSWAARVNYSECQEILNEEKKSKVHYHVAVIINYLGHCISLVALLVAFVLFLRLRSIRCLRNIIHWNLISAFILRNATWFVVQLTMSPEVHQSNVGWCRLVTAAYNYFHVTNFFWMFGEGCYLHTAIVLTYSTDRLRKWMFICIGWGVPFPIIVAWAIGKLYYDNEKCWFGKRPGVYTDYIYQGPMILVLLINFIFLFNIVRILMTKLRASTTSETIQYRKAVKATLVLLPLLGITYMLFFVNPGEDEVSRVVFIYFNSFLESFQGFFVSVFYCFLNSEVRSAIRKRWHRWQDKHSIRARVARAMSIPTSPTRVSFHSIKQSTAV
Text: The following is a description of the isolation of cell membranes containing cloned human CRF-R1 receptors for use in a standard binding assay as well as a description of the assay itself.
Messenger RNA was isolated from human hippocampus. […]. The mRNA was reverse transcribed using oligo (dt) 12–18 and the coding region was amplifies by PCR from start to stop codons. The resulting PCR fragment was cloned into the EcoRV site of pGEMV, from whence the insert was reclaimed using XhoI+XbaI and cloned into the XhoI+XbaI sites of vector pm3 as (which contains a CMV promoter, the SV′t′ splice and early poly A signals, an Eptein-Barr viral origin of replication, and a hygromycin selectable marker). The resulting expression vector, called phchCRFR was transfected in 293EBNA cells and cells retaining the episome were selected in the presence of […] hygromycin. Cells surviving 4 weeks of selection in hygromycin were pooled, adapted to growth in suspension and used to generate membranes for the binding assay described below. Individual aliquots containing approximately 1×10^8 of the suspended cells were then centrifuged to form a pellet and frozen. For the binding assay a frozen pellet described above containing 293EBNA cells transfected with hCRFR1 receptors is homogenized in 10 mL of ice cold tissue buffer (50 mM HEPES buffer pH 7.0, containing 10 MM MgCl2, 2 mM EGTA, 1 μg/mL apotinin, 1 μg/mL leupeptin and 1 μg/mL pepstatin). The homoginate is centrifuged at 40,000×g for 12 min and the resulting pellet rehomogenized in 10 mL of tissue buffer. After another centrifugation at 40,000×g for 12 min, the pellet is resuspended to a protein concentration of 360 μg/mL to be used in the assay.
Binding assays are performed in 96 well plates; each well having a 300 μL capacity. To each well is added 50 μL of test drug dilutions (final concentration of drugs range from 10^−10–10^−5 M), 100 μL of ^125I-ovine-CRF (^125I-o-CRF) (final concentration 150 pM) and 150 μL of the cell homoginate described above. Plates are then allowed to incubate at room temperature for 2 hours before filtering the incubate over GF/F filters (presoaked with 0.3% polyethyleneimine) using an appropriate cell harvester. Filters are rinsed 2 times with ice cold assay buffer before removing individual filters and assessing them for radioactivity on a gamma counter.
Curves of the inhibition of ^125I-o-CRF binding to cell membranes at various dilutions of test drug are analyzed by the iterative curve fitting program LIGAND [P. J. Munson and D. Rodbard, Anal. Biochem., 107:220 (1980), which provides Ki values for inhibition which are then used to assess biological activity. […]
Messenger RNA was isolated from human hippocampus. The mRNA was isolated from human hippocampus. The mRNA was reverse transcribed using oligo (dt) 12–18 and the coding region was amplifies by PCR from start to stop codons. The resulting PCR fragment was cloned into the EcoRV site of pGEMV, from whence the insert was reclaimed using XhoI+XbaI and cloned into the XhoI+XbaI sites of vector pm3 as (which contains a CMV promoter, the SV′t′ splice and early poly A signals, an Eptein-Barr viral origin of replication, and a hygromycin selectable marker). The resulting expression vector, called phchCRFR was transfected in 293EBNA cells and cells retaining the episome were selected in the presence of […] hygromycin. Cells surviving 4 weeks of selection in hygromycin were pooled, adapted to growth in suspension and used to generate membranes for the binding assay described below. […]
A frozen pellet described above containing 293EBNA cells transfected with hCRFR1 receptors or the rat frontal cortex tissue dissected from frozen rat brains was prepared as the source of membranes expressing CRF1 receptors used in binding assays. […]

| SMILES | activity (Ki class in the CRF assays) [1] | melting point [°C] | pKi [1] |
| --- | --- | --- | --- |
| COc1ccc(Nc2nc(C)ccc2S(=O)(=O)c2ccc(OCc3ccccc3OC)cc2)c(C)c1 [Example 1, {3-[4-(2-Methoxybenzyloxy)-benzenesulfonyl]-6-methylpyridin-2-yl}-(4-methoxy-2-methylphenyl)-amine] | d | 70 to 72 | – |
| COc1cc(Cl)c(Nc2nc(C)ccc2S(=O)(=O)c2ccc(OCc3ccccc3OC)cc2)cc1F [Example 2, (2-Chloro-5-fluoro-4-methoxyphenyl)-{3-[4-(2-methoxybenzyloxy)-benzenesulfonyl]-6-methylpyridin-2-yl}-amine] | d | 62 to 64 | – |
| COc1ccccc1COc1ccc(S(=O)(=O)c2ccc(C)nc2Nc2cc(F)c(N(C)C)cc2Cl)cc1 [Example 3, 2-Chloro-5-fluoro-N^1-{3-[4-(2-methoxybenzyloxy)-benzenesulfonyl]-6-methylpyridin-2-yl}-N^4,N^4-dimethylbenzene-1,4-diamine] | d | 68 to 70 | – |
| COc1ccccc1COc1ccc(S(=O)(=O)c2ccc(C)nc2Nc2cc(OC)c(OC)cc2C)cc1 [Example 4, (4,5-Dimethoxy-2-methylphenyl)-{3-[4-(2-methoxybenzyloxy)-benzenesulfonyl]-6-methylpyridin-2-yl}-amine] | d | 62 to 66 | – |
| COc1ccccc1COc1ccc(S(=O)(=O)c2ccc(C)nc2Nc2ccc(OC(F)F)cc2Cl)cc1 [Example 5, (2-Chloro-4-difluoromethoxyphenyl)-{3-[4-(2-methoxybenzyloxy)-benzenesulfonyl]-6-methylpyridin-2-yl}-amine] | d | 124 to 125 | – |
| COc1ccccc1COc1ccc(S(=O)(=O)c2ccc(C)nc2Nc2cc(OC)c(OC)cc2Cl)cc1 [Example 6, (2-Chloro-4,5-dimethoxyphenyl)-{3-[4-(2-methoxybenzyloxy)-benzenesulfonyl]-6-methylpyridin-2-yl}-amine] | d | 149 to 151 | – |
| COc1ccccc1COc1ccc(S(=O)(=O)c2ccc(C)nc2Nc2ccc(S(C)(=O)=O)cc2Cl)cc1 [Example 7, (2-Chloro-4-methanesulfonylphenyl)-{3-[4-(2-methoxybenzyloxy)-benzenesulfonyl]-6-methylpyridin-2-yl}-amine] | d | 100 to 102 | – |
| COc1ccccc1COc1ccc(S(=O)(=O)c2ccc(C)nc2Nc2ccc(Cl)cc2C#N)cc1 [Example 8, 5-Chloro-2-{3-[4-(2-methoxybenzyloxy)-benzenesulfonyl]-6-methylpyridin-2-ylamino}-benzonitrile] | d | 178 to 180 | – |
| COc1ccc(S(=O)(=O)c2ccc(C)nc2Nc2c(C)cc(C)cc2C)cc1 [Example 9, [3-(4-Methoxybenzenesulfonyl)-6-methylpyridin-2-yl]-(2,4,6-trimethylphenyl)-amine] | – | 165 to 167 | 6.30 to 7.00 |
| Cc1cc(C)c(Nc2nc(C)ccc2S(=O)(=O)c2ccc(O)cc2)c(C)c1 [Example 10, 4-[6-Methyl-2-(2,4,6-trimethylphenylamino)-pyridine-3-sulfonyl]-phenol] | – | 226 to 228 | 5.30 to 6.30 |
| Cc1cc(C)c(Nc2nc(C)ccc2S(=O)(=O)c2ccc(OCc3ccccc3)cc2)c(C)c1 [Example 11, [3-(4-Benzyloxybenzenesulfonyl)-6-methylpyridin-2-yl]-(2,4,6-trimethylphenyl)-amine] | – | 158 to 160 | ≥ 7.00 |
| CCOc1ccc(S(=O)(=O)c2ccc(C)nc2Nc2c(C)cc(C)cc2C)cc1 [Example 12, [3-(4-Ethoxybenzenesulfonyl)-6-methylpyridin-2-yl]-(2,4,6-trimethylphenyl)-amine] | d | 157 to 159 | – |
| Cc1cc(C)c(Nc2nc(C)ccc2S(=O)(=O)c2ccc(OCCCC#N)cc2)c(C)c1 [Example 14, 4-{4-[6-Methyl-2-(2,4,6-trimethylphenylamino)-pyridine-3-sulfonyl]-phenoxy}-butyronitrile] | – | 160 to 162 | 5.30 to 6.30 |
| Cc1cc(C)c(Nc2nc(C)ccc2S(=O)(=O)c2ccc(OCCCCC#N)cc2)c(C)c1 [Example 15, 5-{4-[6-Methyl-2-(2,4,6-trimethylphenylamino)-pyridine-3-sulfonyl]-phenoxy}-pentanenitrile] | – | 115 to 116 | 6.30 to 7.00 |

Next, values leading:

| activity (Ki class in the CRF assays) [1] | melting point [°C] | pKi [1] | SMILES |
| --- | --- | --- | --- |
| – | 152 to 153 | 5.30 to 6.30 | Cc1cc(C)c(Nc2nc(C)ccc2S(=O)(=O)c2ccc(OCCCO)cc2)c(C)c1 [Example 16, 3-{4-[6-Methyl-2-(2,4,6-trimethylphenylamino)-pyridine-3-sulfonyl]-phenoxy}-propan-1-ol] |
| – | 116 to 118 | 5.30 to 6.30 | CCOC(=O)COc1ccc(S(=O)(=O)c2ccc(C)nc2Nc2c(C)cc(C)cc2C)cc1 [Example 17, {4-[6-Methyl-2-(2,4,6-trimethylphenylamino)-pyridine-3-sulfonyl]-phenoxy}-acetic acid ethyl ester] |
| – | 111 to 113 | 6.30 to 7.00 | CCC(Oc1ccc(S(=O)(=O)c2ccc(C)nc2Nc2c(C)cc(C)cc2C)cc1)C(=O)OC (stereo not drawn) [Example 18, 2-{4-[6-Methyl-2-(2,4,6-trimethylphenylamino)-pyridine-3-sulfonyl]-phenoxy}-butyric acid methyl ester] |
| – | 182 to 184 | 6.30 to 7.00 | Cc1cc(C)c(Nc2nc(C)ccc2S(=O)(=O)c2ccc(OCc3ccccn3)cc2)c(C)c1 [Example 19, {6-Methyl-3-[4-(pyridin-2-ylmethoxy)-benzenesulfonyl]-pyridin-2-yl}-(2,4,6-trimethylphenyl)-amine] |
| – | 192 to 201 | 6.30 to 7.00 | Cc1cc(C)c(Nc2nc(C)ccc2S(=O)(=O)c2ccc(OCc3cc(Cl)nc(Cl)c3)cc2)c(C)c1 [Example 20, {3-[4-(2,6-Dichloropyridin-4-ylmethoxy)-benzenesulfonyl]-6-methylpyridin-2-yl}-(2,4,6-trimethylphenyl)-amine] |
| – | 200 to 201 | 6.30 to 7.00 | Cc1cc(C)c(Nc2nc(C)ccc2S(=O)(=O)c2ccc(OCc3csc(C)n3)cc2)c(C)c1 [Example 21, {6-Methyl-3-[4-(2-methylthiazol-4-ylmethoxy)-benzenesulfonyl]-pyridin-2-yl}-(2,4,6-trimethylphenyl)-amine] |
| – | 178 to 180 | 6.30 to 7.00 | Cc1cc(C)c(Nc2nc(C)ccc2S(=O)(=O)c2ccc(OCc3ccc(F)cc3)cc2)c(C)c1 [Example 22, {3-[4-(4-Fluorobenzyloxy)-benzenesulfonyl]-6-methylpyridin-2-yl}-(2,4,6-trimethylphenyl)-amine] |
